Molecules are shown by their SMILES. Read-outs that look alike come from different tables or passages of the source. A value given as a limit tells only on which side of the number the result lay.

Broadly, the minimal effective dose is the smallest amount tested that counted as effective. For orientation: IC50 means the concentration that gives 50% inhibition.

In one assay the test system is Renal Hypertensive Rats. Briefly: Antihypertensive effects in renal hypertensive rats. It counts as in vivo. The note with it: Rattus norvegicus; for minimal effective dose at 10 mg/kg / minimal effective dose at 100 mg/kg: Table 25; for minimal effective dose at 10 mg/kg / minimal effective dose at 3 mg/kg: intravenous; for minimal effective dose at 10 mg/kg: 10 mg/kg or less; for minimal effective dose at 100 mg/kg / minimal effective dose at 30 mg/kg: oral; for minimal effective dose at 100 mg/kg: 100 mg/kg or less; for minimal effective dose at 3 mg/kg / minimal effective dose at 30 mg/kg: Table 26. The procedure, abridged:
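Renal hypertensive rats (renin-driven AII elevation) dosed orally at 100 mg/kg and/or i.v. via jugular cannula at 10 mg/kg; a second set used 30 mg/kg oral and 3 mg/kg i.v. Arterial pressure recorded continuously via carotid cannula and compared with pretreatment levels.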

For a further assay, the target named is AII receptor. Briefly: Angiotensin II receptor binding (displacement of 3H-AII). The note with it: read-out: Angiotensin II Receptor Binding IC50, rat adrenal cortical microsomes, 2 nM 3H-AII, 1 hour, room temperature. In a few lines:
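The receptor source was rat adrenal cortical microsomes in Tris buffer, incubated with 2 nM ³H-AII plus or minus test compound for 1 h at room temperature. Bound and free ligand were separated by rapid filtration on glass-fibre filters. Filter-bound ³H-AII was counted by scintillation.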
(In general: Loss of bound radioactivity is the signal in a displacement assay; it reports binding, not function.)

The mark [1] stands for this setting: Table 25, tested as sodium salt.

In the assay on Renal Hypertensive Rats, `CCCCc1nc(Cl)c(CO)n1Cc1ccc(-c2ccccc2C(=O)NOCc2ccccc2)cc1` [Example 181] gave a minimal effective dose at 10 mg/kg of less than 10 mg/kg and a minimal effective dose at 100 mg/kg greater than 100 mg/kg. Besides, the IC50 at AII receptor (Table 25) worked out at 4900 nM.
In the assay with Renal Hypertensive Rats, `CCCCc1nc(Cl)c(CO)n1Cc1ccc(-c2ccccc2C(=O)NO)cc1` [Example 182] registered a minimal effective dose at 10 mg/kg of less than 10 mg/kg and a minimal effective dose at 100 mg/kg greater than 100 mg/kg. Also, at AII receptor (Table 25), the IC50 was found to be 4100 nM.
Turning to `CCCCc1nc(Cl)c(CC(=O)O)n1Cc1ccc(OCc2ccccc2C(=O)O)cc1` [Example 192, 1-[4-(2-Carboxybenzyloxy)benzyl]-2-butyl-4-chloroimidazole-5-acetic acid], the minimal effective dose at 100 mg/kg with Renal Hypertensive Rats was greater than 100 mg/kg. For the same compound, the IC50 on AII receptor (Table 25) was 2300 nM.
On to `CCCCc1nc(Cl)c(Cn2cncn2)n1Cc1ccc(C(=O)c2ccccc2C(=O)O)cc1` [Example 204, 2-Butyl-1-[4-(2-Carboxybenzoyl)benzyl]-4-chloro-5-((1,2,4-triazol-1-yl)methyl)imidazole], for which, in the assay with Renal Hypertensive Rats (tested as sodium salt), the minimal effective dose at 10 mg/kg is less than 10 mg/kg and the minimal effective dose at 100 mg/kg was greater than 100 mg/kg. Besides, on AII receptor (setting [1]), the IC50 came out at 1900 nM.
For `CCCCc1nc(Cl)c(Cc2nnn[nH]2)n1Cc1ccc(C(=O)c2ccccc2C(=O)O)cc1` [Example 208, 2-Butyl-1-[4-(2-carboxybenzoyl)benzyl]-4-chloro-5-[(1H-tetrazol-5-yl)methyl]imidazole], in the assay on Renal Hypertensive Rats (tested as sodium salt), the minimal effective dose at 10 mg/kg is less than 10 mg/kg and the minimal effective dose at 100 mg/kg is greater than 100 mg/kg. Moreover, on AII receptor (setting [1]), the IC50 was 330 nM.
The like results for `CCCCc1nc(Cl)c(CNS(C)(=O)=O)n1Cc1ccc(C(=O)c2ccccc2C(=O)O)cc1` [Example 215] were, in that order, less than 10 mg/kg, greater than 100 mg/kg and 200 nM.
With `CCCCc1nc(Cl)c(/C=C/CO)n1Cc1ccc(NC(=O)c2ccccc2C(=O)O)cc1` [Example 227, 3-[1-(4-(2-Carboxybenzamido)-benzyl)-2-butyl-4-chloroimidazol-5-yl]-propen-1-ol, E isomer], the minimal effective dose at 10 mg/kg in the assay on Renal Hypertensive Rats is less than 10 mg/kg. At AII receptor (Table 25), the IC50 worked out at 110 nM.
In the assay with Renal Hypertensive Rats, `CCCCc1nc(Cl)c(/C=C/C(C)O)n1Cc1ccc(-c2ccccc2C(=O)OC)cc1` (stereo not drawn) [Example 229, 4-[1-(2'-Carbomethoxybiphenyl-4-yl)methyl-2-butyl-4-chloroimidazol-5-yl]-3-buten-2-ol, E isomer] displayed a minimal effective dose at 10 mg/kg of less than 10 mg/kg and a minimal effective dose at 100 mg/kg of less than 100 mg/kg. The IC50 at AII receptor (Table 25) is 2100 nM.
Compound `CCCCc1nc(Cl)c(/C=C/c2ccccc2)n1Cc1ccc(NC(=O)c2ccccc2C(=O)O)cc1` [Example 230, 1-[4-(2-Carboxybenzamido)-benzyl]-2-butyl-4-chloro-5-(2-phenylethen-1-yl)imidazole, E isomer] gave a minimal effective dose at 10 mg/kg in the assay with Renal Hypertensive Rats of less than 10 mg/kg. Also, the 50% inhibitory concentration (IC50) at AII receptor (Table 25) is 1600 nM.
The like results for `CCCCc1nc(Cl)c(/C=C/COC(C)=O)n1Cc1ccc(NC(=O)c2ccccc2NS(=O)(=O)C(F)(F)F)cc1` [Example 232, 3-[1-(4-((N-Trifluoromethanesulfonyl)-anthranilamido)benzyl)-2-butyl-4-chloroimidazol-5-yl]-3-propen-1-ol acetate, E isomer] were, in that order, less than 10 mg/kg and 510 nM.
With `CCCCc1nc(Cl)c(/C=C/CO)n1Cc1ccc(NC(=O)c2ccccc2NS(=O)(=O)C(F)(F)F)cc1` [Example 233, 3-[1-(4-((N-trifluoromethanesulfonyl)-anthranilamido)benzyl)-2-butyl-4-chloroimidazol-5-yl]-propen-1-ol, E isomer], in the assay on Renal Hypertensive Rats, the minimal effective dose at 10 mg/kg is less than 10 mg/kg and the minimal effective dose at 100 mg/kg is less than 100 mg/kg. Further, the IC50 at AII receptor (Table 25) was 600 nM.
On the same counts, the results for `CCCCc1nc(Cl)c(CCC(=O)OC)n1Cc1ccc(NC(=O)c2ccccc2C(=O)O)cc1` [Example 234, 3-[2-Butyl-4-chloro-1-(4-(2-carboxybenzamido)benzyl)imidazol-5-yl]-propanoic acid methyl ester] are less than 10 mg/kg, greater than 100 mg/kg and 64 nM.
In the assay on Renal Hypertensive Rats, `CCCCc1nc(Cl)c(CCC(=O)OC)n1Cc1ccc(NC(=O)c2ccccc2NS(=O)(=O)C(F)(F)F)cc1` [Example 235, 3-[2-Butyl-4-chloro-1-(4-((N-trifluoromethanesulfonyl)anthranilamido)benzyl)imidazol-5-yl]-propanoic acid methyl ester] displayed a minimal effective dose at 10 mg/kg of less than 10 mg/kg and a minimal effective dose at 100 mg/kg greater than 100 mg/kg. Further, the IC50 on AII receptor (Table 25) is 160 nM.
Consider `CCCCc1nc(Cl)c(CC(C)C(=O)OC(C)C)n1Cc1ccc(NC(=O)c2ccccc2NS(=O)(=O)C(F)(F)F)cc1` (stereo not drawn) [Example 237, 3-[1-(4-((N-trifluoromethanesulfonyl)anthranilamido)benzyl)-2-butyl-4-chlorimidazol-5-yl]-2-methylpropanoic acid, isopropyl ester], for which, in the assay on Renal Hypertensive Rats, the minimal effective dose at 10 mg/kg is less than 10 mg/kg and the minimal effective dose at 100 mg/kg was greater than 100 mg/kg. Further, the IC50 at AII receptor (Table 25) is 120 nM.
Compound `CCCCc1nc(Cl)c(C(=O)O)n1Cc1ccc(-c2ccccc2C(=O)O)cc1` [Example 240, 1-[(2'-Carboxybiphenyl-4-yl)methyl]-2-butyl-4-chloroimidazole-5-carboxylicacid] returned a minimal effective dose at 10 mg/kg with Renal Hypertensive Rats of less than 10 mg/kg. At AII receptor (Table 25), the IC50 is 92 nM.
Regarding `CCCCc1nc(C(F)(F)F)c(C(=O)O)n1Cc1ccc(-c2ccccc2-c2nn[nH]n2)cc1` [Example 240A], in the assay with Renal Hypertensive Rats, the minimal effective dose at 3 mg/kg is less than 3 mg/kg and the minimal effective dose at 30 mg/kg is less than 30 mg/kg. Besides, the IC50 on AII receptor (Table 26) was found to be 150 nM.
Regarding `CCCCc1nc(Cl)c(/C=C/C(=O)OC)n1Cc1ccc(NC(=O)c2ccccc2C(=O)O)cc1` [Example 242], the minimal effective dose at 10 mg/kg in the assay on Renal Hypertensive Rats was less than 10 mg/kg. Besides, the IC50 on AII receptor (Table 25) amounted to 270 nM.
On to `CCCCc1nc(Cl)c(CCC(C)=O)n1Cc1ccc(NC(=O)c2ccccc2C(=O)O)cc1` [Example 244], for which the minimal effective dose at 10 mg/kg in the assay on Renal Hypertensive Rats was less than 10 mg/kg. For the same compound, the IC50 at AII receptor (Table 25) is 88 nM.
Take `CCCCc1nc(Cl)c(CC(C)C(=O)OC(C)C)n1Cc1ccc(NC(=O)c2ccccc2C(=O)O)cc1` (stereo not drawn) [Example 246]: the minimal effective dose at 10 mg/kg with Renal Hypertensive Rats is less than 10 mg/kg. The IC50 at AII receptor (Table 25) worked out at 120 nM.
On the same counts, the results for `CCCCc1nc(Cl)c(CCCOC(C)=O)n1Cc1ccc(NC(=O)c2ccccc2NS(=O)(=O)C(F)(F)F)cc1` [Example 248] are less than 10 mg/kg and 250 nM.
In the assay on Renal Hypertensive Rats, `CCCCc1nc(Cl)c(CCC(=O)N2CCOCC2)n1Cc1ccc(NC(=O)c2ccccc2C(=O)O)cc1` [Example 249] registered a minimal effective dose at 10 mg/kg of less than 10 mg/kg and a minimal effective dose at 100 mg/kg greater than 100 mg/kg. Moreover, the concentration for half-maximal inhibition (IC50) on AII receptor (Table 25) worked out at 72 nM.
With `CCCCc1nc(Cl)c(CCC(=O)N2CCOCC2)n1Cc1ccc(NC(=O)c2ccccc2NS(=O)(=O)C(F)(F)F)cc1` [Example 250], in the assay on Renal Hypertensive Rats, the minimal effective dose at 10 mg/kg is less than 10 mg/kg and the minimal effective dose at 100 mg/kg is greater than 100 mg/kg. In addition, the IC50 at AII receptor (Table 25) came to 120 nM.
In the assay on Renal Hypertensive Rats, `CCCc1nc(Cl)c(C(=O)O)n1Cc1ccc(-c2ccccc2-c2nn[nH]n2)cc1` [Example 251A] came in with a minimal effective dose at 3 mg/kg of less than 3 mg/kg and a minimal effective dose at 30 mg/kg of less than 30 mg/kg. Besides, the half-maximal inhibitory concentration (IC50) on AII receptor (Table 26) came out at 45 nM.
On to `CCCCc1nc(Cl)c(CCC(=O)O)n1Cc1ccc(-c2ccccc2C(=O)O)cc1` [Example 264], for which, in the assay on Renal Hypertensive Rats, the minimal effective dose at 10 mg/kg is less than 10 mg/kg and the minimal effective dose at 100 mg/kg is less than 100 mg/kg. Moreover, the IC50 at AII receptor (Table 25) came to 250 nM.

Source of the values: patent US5138069A (E. I. Du Pont de Nemours and Company, priority 1988, dated 1992).
